Data on 19 compounds can be found in patent publication US12396961B2, “Compounds and compositions for intracellular delivery of agents” (ModernaTX, Inc., priority 2015, dated 2025).

A short description of series [1]: Particle size and polydispersity index (Zetasizer Nano ZS). It counts as physicochemical. An excerpt: Nanoparticle compositions may be characterized by a variety of methods. For example, microscopy (e.g., transmission electron microscopy or scanning electron microscopy) may be used to examine the morphology and size distribution of a nanoparticle composition. Dynamic light scattering or potentiometry (e.g., potentiometric titrations) may be used to measure zeta potentials. Dynamic light scattering may also be utilized to determine particle sizes. Instruments such as the Zetasizer Nano ZS (Malvern Instruments Ltd, Malvern, Worcestershire, UK) may also be used to measure multiple characteristics of a nanoparticle composition, such as particle size, polydispersity index, and zeta potential.
A Zetasizer Nano ZS (Malvern Instruments Ltd, Malvern, Worcestershire, UK) can be used to determine the particle size, the polydispersity index (PDI) and the zeta potential of the nanoparticle compositions in 1×PBS in determining particle size and 15 mM PBS in determining zeta potential.

Series [2] has as its system hEPO mRNA expression. The experiment in a line: Expression of hEPO after intravenous administration to rats. It counts as in vivo. As to conditions: rats i.v.; 3, 6, 24 hours. As for the experimental part:
PBS (phosphate buffered saline) is used as control.
Formulations were prepared according to Table 5 and included mRNA encoding hEPO.
[…] After the 48 hour time point, livers and spleens were harvested and frozen.

In series [3] the test system is luciferase (Luc) mRNA expression. Description: Expression of Luc, bioluminescence (total flux) after intravenous administration to mice. Format: in vivo. As to conditions: mice i.v. 0.5 mg/kg; 3, 6, 24 hours. As for the experimental part: In order to monitor how effectively various nanoparticle compositions deliver therapeutic and/or prophylactic agents to targeted cells, different nanoparticle compositions including a particular therapeutic and/or prophylactic agent (for example, a modified or naturally occurring RNA such as an mRNA) are prepared and administered to rodent populations. Mice are intravenously, intramuscularly, intraarterially, or intratumorally administered a single dose including a nanoparticle composition with a formulation such as those provided in Table 1. In some instances, mice may be made to inhale doses. Dose sizes may range from 0.001 mg/kg to 10 mg/kg, where 10 mg/kg describes a dose including 10 mg of a therapeutic and/or prophylactic agent in a nanoparticle composition for each 1 kg of body mass of the mouse. A control composition including PBS may also be employed.
Upon administration of nanoparticle compositions to mice, dose delivery profiles, dose responses, and toxicity of particular formulations and doses thereof can be measured by enzyme-linked immunosorbent assays (ELISA), bioluminescent imaging, or other methods. For nanoparticle compositions including mRNA, time courses of protein expression can also be evaluated. Samples collected from the rodents for evaluation may include blood, sera, and tissue (for example, muscle tissue from the site of an intramuscular injection and internal tissue); sample collection may involve sacrifice of the animals.
The efficacy of the nanoparticle compositions presented in Tables 1, la, 17-1, 19-1, 20-1 and 21-1 was evaluated with a bioluminescence study. Formulations were administered intravenously to mice (n=6) at a dosage of 0.5 mg/kg (mpk) and bioluminescence measured at 3, 6, and 24 hour time points. The standard MC3 formulation and a PBS control were evaluated for comparison.

Series [4] deals with hEPO mRNA expression. The experiment in a line: Expression of hEPO in mice (CD-1). It counts as in vivo, CD-1 mice. As to conditions: Table 7e; hEPO expression, CD-1 mice, 0.5 mpk. The text has this:
FIG. 12 is a set of graphs illustrating hEPO expression levels in CD-1 mice dosed with compounds of the disclosure, compared to MC3. PBS is used as control. […] In graphs A-C numbers 1-14 refer to compositions containing the following: 1: Compound 73, 2: Compound 80, 3: Compound 70; 4: Compound 81; 5: Compound 69; 6: Compound 82; 7: Compound 83; 8: Compound 62; 9: Compound 84; 10: Compound 85; 11: Compound 86; 12: Compound 87; 13: MC3; 14: PBS.
FIG. 13 is a graph showing hEPO levels (pg/mL) in CD-1 mice up to −25 h after administration of a nanoparticle composition containing compounds of the disclosure, compared to a composition containing MC3. Numbers 1-13 refer to compositions containing the following: 1: Compound 73, 2: Compound 80, 3: Compound 70; 4: Compound 81; 5: Compound 69; 6: Compound 82; 7: Compound 83; 8: Compound 62; 9: Compound 84; 10: Compound 85; 11: Compound 86; 12: Compound 87; 13: MC3. […]

The subject of series [5] is luciferase (Luc) mRNA expression. The experiment in a line: Luc expression (AUC) in CD-1 mice relative to MC3. It counts as in vivo. Particulars: Luc expression relative to MC3, CD-1 mice. As for the experimental part: FIG. 15 is a graph summarizing luciferase expression levels at 6 h after administration of nanoparticle compositions containing compounds of the disclosure to CD-1 mice at a dose of 0.5 mpk. Total light flux values were acquired via body luminescent imaging (BLI) 6 h after administration. In this Figure, the numbers 1-7 and 10 refer to the compositions containing Compounds 4-10 and MC3 respectively.
In contrast, hEPO expression in rats induced by administration of nanoparticle composition including compound according to one of formulae (I), (Ia1)-(Ia6), (Ib), (II), (IIa), (III), and (IIIa) was substantially lower than that measured for MC3. […] Table 7c and 7d show additional protein expressions and clearance data from compositions with various compounds disclosed herein as compared to with MC3.

[6] abbreviates: Table 1, DOPE 40:20:38.5:1.5, Luc mRNA.

Each structure is given as a SMILES string.

`CCCCCCCCCCCCN(CCCCCCCCCCCC)CCN(CCCCCCCCCCCC)CCN1CCN(CCN(CCCCCCCCCCCC(=O)OC)CCCCCCCCCCCC(=O)OC)CC1` [Compound 16, Dimethyl 12,12′-((2-(4-(2-((2-(didodecylamino)ethyl)(dodecyl)amino)ethyl)piperazin-1-yl)ethyl)azanediyl)didodecanoate] registered a PDI in series [1] (formulated with hEPO mRNA) of 0.140. For the same compound, in the series on hEPO mRNA expression [2], the “hEPO expression at each time point, comparison in words (Table 6)” value is reported as “lowest hEPO expression”. With `CCCCC/C=C\C/C=C\CCCCCCCCN(CCCCCCCC/C=C\C/C=C\CCCCC)CCN1CCN(CCCCCCCCCCCC)CC1` [Compound 19-6, (9Z,12Z)—N-(2-(4-Dodecylpiperazin-1-yl)ethyl)-N-((9Z,12Z)-octadeca-9,12-dien-1-yl)octadeca-9,12-dien-1-amine], the “Total flux (Luc expression), comparison in words over the time points of the table named” value in series [3] is “next highest flux”.

Consider `CCCCCCCCCCCCN(CCCCCCCCCCCC)CCN1CCN(Cc2ccc(OC)cc2)CC1` [Compound 19-5, N-Dodecyl-N-(2-(4-(4-methoxybenzyl)piperazin-1-yl)ethyl)dodecan-1-amine], for which, in series [3], the “Total flux (Luc expression), comparison in words over the time points of the table named” value was “next highest flux”. For the compound `CCCCCCCCCN(CCCCCCCCC)CCN(CCCCCCCCC)CC(=O)N1CCC(CN(CCCCCCCCC)CCCC(=O)OCCCCC)C1` (centres unmarked) [Compound 82, Pentyl 4-(((1-(N-(2-(dinonylamino)ethyl)-N-nonylglycyl)pyrrolidin-3-yl)methyl)(nonyl)amino)butanoate], the “Lipid/MC3 AUC” value with hEPO mRNA expression [4] is 3.62. Same read-out and setting: as for `CCCCCCCCCN(CCCOC(=O)CCCCC)CCC(=O)N1CCN(C(=O)CCN(CCCCCCCCC)CCN(CCCCCCCCC)CCCCCCCCC)CC1` [Compound 86, 3-((3-(4-(3-((2-(Dinonylamino)ethyl)(nonyl)amino)propanoyl)piperazin-1-yl)-3-oxopropyl)(nonyl)amino)propyl Hexanoate], the figure is 0.49. Regarding `CCCCCCCCCN(CCCCCCCCC)CCCC1CCN(C(=O)CCN(CCCCCCCCC)CCN(CCCCCCCCC)CCCCCCCCC)CC1` [Compound 85, 3-((2-(Dinonylamino)ethyl)(nonyl)amino)-1-(4-(3-(dinonylamino)propyl)piperidin-1-yl)propan-1-one], in the series on hEPO mRNA expression [4], the “Lipid/MC3 AUC” value is 3.54.

As to `CCCCC/C=C\C/C=C\CCCCCCCCN(CCO)CCCCCCCCCCCC` [Compound 17-4, 2-(Dodecyl((9Z,12Z)-octadeca-9,12-dien-1-yl)amino)ethan-1-ol], in series [3], the “Total flux (Luc expression), comparison in words over the time points of the table named” value is “substantially higher flux than compositions including Compounds 17-2, 17-3, and 17-7”.

On to `CCCCCCCCCN(CCCC(=O)OCCCCC)CCC1CCCN(C(=O)CN(CCCCCCCCC)CCN(CCCCCCCCC)CCCCCCCCC)C1` (centres unmarked) [Compound 80, Pentyl 4-((2-(1-(N-(2-(dinonylamino)ethyl)-N-nonylglycyl)piperidin-3-yl)ethyl)(nonyl)amino)butanoate], for which the “Lipid/MC3 AUC” value in the series on hEPO mRNA expression [4] was 1.74. Still for that read-out and setting: as for `CCCCCCCCCN(CCCC(=O)OCCCCC)CCCC1CCN(C(=O)CCN(CCCCCCCCC)CCN(CCCCCCCCC)CCCCCCCCC)CC1` [Compound 84, Pentyl 4-((3-(1-(3-((2-(dinonylamino)ethyl)(nonyl)amino)propanoyl)piperidin-4-yl)propyl)(nonyl)amino)butanoate], the figure is 1.43; as for `CCCCCCCCCN(CCCC(=O)OCCCCC)CCC1CCN(C(=O)CN(CCCCCCCCC)CCN(CCCCCCCCC)CCCCCCCCC)C1` (centres unmarked) [Compound 81, Pentyl 4-((2-(1-(N-(2-(dinonylamino)ethyl)-N-nonylglycyl)pyrrolidin-3-yl)ethyl)(nonyl)amino)butanoate], 3.01; as for `CCCCCCCCCN(CCCCCCCCC)CCN(CCCCCCCCC)CC(=O)N1CCC(CN(CCCCCCCCC)CCCCCCCCC)C1` (centres unmarked) [Compound 70, 2-((2-(Dinonylamino)ethyl)(nonyl)amino)-1-(3-((dinonylamino)methyl)pyrrolidin-1-yl)ethan-1-one], 1.77. In the case of `CCCCCCCCCN(CCCCCCCCC)CCC1CCCN(C(=O)CN(CCCCCCCCC)CCN(CCCCCCCCC)CCCCCCCCC)C1` (centres unmarked) [Compound 73, 2-((2-(Dinonylamino)ethyl)(nonyl)amino)-1-(3-(2-(dinonylamino)ethyl)piperidin-1-yl)ethan-1-one], in the series on hEPO mRNA expression [4], the “Lipid/MC3 AUC” value turned out to be 3.93. Regarding `CCCCCCCCCN(CCCCCCCCC)CCC(=O)N1CCN(C(=O)CCN(CCCCCCCCC)CCN(CCCCCCCCC)CCCCCCCCC)CC1` [Compound 52, 3-(Dinonylamino)-1-(4-(3-((2-(dinonylamino)ethyl)(nonyl)amino)propanoyl)piperazin-1-yl)propan-1-one], the PDI in series [1] (setting [6]) is on record as 0.100. Also, in series [5], the “Lipid/MC3 Luc CD-1 (mice)” value was found to be 7.46.

Consider `CCCCCCCCCN(CCCCCCCC(=O)OC)CCN(CCCCCCCCC)CC(=O)N1CCN(C(=O)CN(CCCCCCCCC)CCCCCCCCC)CC1` [Compound 46, Methyl 8-((2-((2-(4-(dinonylglycyl)piperazin-1-yl)-2-oxoethyl)(nonyl)amino)ethyl)(nonyl)amino)octanoate], for which, in series [1] (setting [6]), the PDI was 0.160. Besides, in series [5], the “Lipid/MC3 Luc CD-1 (mice)” value worked out at 0.46.

`CCCCCCCCCN(CCCCCCCCC)CCC1CCN(C(=O)CN(CCCCCCCCC)CCN(CCCCCCCCC)CCCCCCCCC)C1` (centres unmarked) [Compound 69, 2-((2-(Dinonylamino)ethyl)(nonyl)amino)-1-(3-(2-(dinonylamino)ethyl)pyrrolidin-1-yl)ethan-1-one]: the “Lipid/MC3 AUC” value in the series with hEPO mRNA expression [4] is on record as 6.52. In the case of `CCCCCCCCCN(CCCCCCCCC)CCN(CCCCCCCCC)CCC1CCN(C(=O)CN(CCCCCCCCC)CCCCCCCCC)CC1` [Compound 50, 2-(Dinonylamino)-1-(4-(2-((2-(dinonylamino)ethyl)(nonyl)amino)ethyl)piperidin-1-yl)ethan-1-one], the PDI in series [1] (setting [6]) was 0.190. Besides, the “Lipid/MC3 Luc CD-1 (mice)” value in series [5] came out at 0.01. Regarding `CCCCCCCCCN(CCCC(=O)OCCCCC)CCC1CCN(C(=O)CN(CCCCCCCCC)CCN(CCCCCCCCC)CCCCCCCCC)CC1` [Compound 83, Pentyl 4-((2-(1-(N-(2-(dinonylamino)ethyl)-N-nonylglycyl)piperidin-4-yl)ethyl)(nonyl)amino)butanoate], the “Lipid/MC3 AUC” value in the series on hEPO mRNA expression [4] turned out to be 1.46. On to `CCCCCCCCCN(CCCOC(=O)CCCCC)CCCC1CCN(C(=O)CCN(CCCCCCCCC)CCN(CCCCCCCCC)CCCCCCCCC)CC1` [Compound 87, 3-((3-(1-(3-((2-(Dinonylamino)ethyl)(nonyl)amino)propanoyl)piperidin-4-yl)propyl)(nonyl)amino)propyl hexanoate], for which the “Lipid/MC3 AUC” value in the series on hEPO mRNA expression [4] is 0.80. Same read-out and setting: as for `CCCCCCCCCN(CCCC(=O)OCCCCC)CCC(=O)N1CCN(C(=O)CCN(CCCCCCCCC)CCN(CCCCCCCCC)CCCCCCCCC)CC1` [Compound 62, Pentyl 4-((3-(4-(3-((2-(dinonylamino)ethyl)(nonyl)amino)propanoyl)piperazin-1-yl)-3-oxopropyl)(nonyl)amino)butanoate], the figure is 0.97.
